Test results taken from patent US9750934B2, “Treating bacteria with electric fields” (Novocure Limited, priority 2000, dated 2017).
“And” between values parts separate entries of the source, which are not always exact repeats. Equal values may be shown once.

Tests used:
[1] = test system: P. aeruginosa strain PAO1; assay: P. aeruginosa pulmonary infection in neutropenic ICR mice, ceftazidime alone or combined with electric fields / sham heat; format: in vivo, Pseudomonas aeruginosa; conditions: for Average lungs weight, weight in mg (±STDEV): end of 48 hour treatment
Description: In vivo experiments were also performed on Pseudomonas aeruginosa strain PAO1 in lungs of infected mice. For this example, bacteria were grown in LB media (1.0% Bacto tryptone, 0.5% Yeast extract, 1.0% NaCl (Frutarom, Haifa, Israel). Broth cultures of freshly plated bacteria were grown in 250 ml of liquid medium at 37° C. in an orbital shaker at 220 RPM (New Brunswick Scientific, N.J., USA) up to logarithmic phase, centrifuged and resuspended in saline containing 15% glycerol. Stocks were divided into aliquots of 50 μl each containing 2.17×10^7 Colony Forming Units (CFU)/ml and kept at −70° C. until use.
Experiments were conducted on 7- to 8-week-old (body weight 26-35 g) ICR female mice obtained from Harlan laboratories (Israel). Mice were housed under standard conditions of light and temperature, and were fed standard laboratory chow and water ad libitum. Electric fields were generated by 2 pairs of parallel metal electrodes, 15 mm-long; 3 mm-high. The front of the electrodes was completely insulated from the medium by a ceramic [(lead magnesium niobate-lead titanate (PMN-PT) (EDO, New York, N.Y.)] having a very high dielectric constant (∈>5000) such that their capacitance was about 10 nF each. The back of the electrodes was insulated by a 2.5 mm thick layer of 353ND medical grade epoxy (Epoxy Technology, Billerica, Mass., USA). Each electrode contained a thermistor placed within the epoxy directly on top of the ceramic in order to allow for constant monitoring of the electrodes' temperature.
Two control groups were set in each experiment: sham heat control, and non treated control (referred to as “Control”). Control electrodes of identical size and shape to the electric fields electrodes, were placed on mice of the two control groups. The Sham heat electrodes produced equal temperature changes to those produced by the field electrodes by means of a heating resistor incorporated within them, and the sham heat electrodes were placed in the same positions as the real electrodes. Except for the differences in the electrodes, the control mice and the sham heat treated mice were held in conditions identical to those of the electric fields treated mice.
Mice were rendered neutropenic (neutrophil counts, <100/mm^3), as described in Andes and Craig (1998), by two intraperitoneal injections of cyclophosphamide; four days before infection (150 mg/kg of body weight) and an additional injection one day before infection (100 mg/kg of body weight). The pulmonary infection model of Takeda et al., (2006) was used with minor modifications: Anesthetized ICR mice were challenged intra-nasally with 20 μL of saline containing various concentrations (10^4-10^7 CFU/ml) of P. aeruginosa strain PAO1. On the day of infection, immediately before use, frozen bacterial cultures were thawed and diluted in saline to the desired concentration. Anesthetized mice were challenged intra-nasally with the bacterial suspension. Mice were sacrificed at 0, 3, 6, 9, 24, and 48 hours after infection in order to determine CFU counts in their lungs. After skin disinfection with 70% alcohol, lungs from sacrificed mice were removed aseptically, photographed, weighted and their CFU content was determined.
Application of electric fields to the mouse torso was carried out as follows: 4 days before infection, the torso of anesthetized mice was shaved with electrical clippers and depilated using cold wax. Electric fields treatment was applied through four insulated electrodes placed around the mouse torso so as to generate fields of two perpendicular directions. Mice were placed inside the IVC cages and the electrodes were connected to the connection box. Application of electric fields began 3 hours after infection and was maintained for 48 h with two brief stops daily for monitoring the physical condition of the mice. After 48 h of treatment, the mice were sacrificed and bacterial numbers in lung were determined. […]

S. aureus [2] = assay: MIC of antibiotic by serial twofold dilutions (NCCLS guidelines); format: cell-based, Staphylococcus aureus strain SH1000; conditions: Staphylococcus aureus; chloramphenicol alone; lowest concentration that completely inhibited growth; read-out: MIC against S. aureus
Description: Experiments were also performed on two different types of bacteria—Pseudomonas aeruginosa strain PAO1 and Staphylococcus aureus strain SH1000. All strains were grown in LB media (1.0% Bacto tryptone, 0.5% Yeast extract, 1% NaCl). Broth cultures of freshly plated bacteria strains were grown in 3 ml of liquid medium at 37° C. for 15 hours in an orbital shaker (220 RPM) and diluted in fresh LB broth to a predetermined absorbance at 595 nm which yielded the desired CFU per ml.
The combined effect of the electric fields and antibiotics was also tested. Chloramphenicol was obtained as powder and dissolved in EtOH (99%, Frutarom). All the stock solutions were filter sterilized and held at −20° C. until use. Serial twofold dilutions of each antibiotic agent were prepared following NCCLS guidelines. […] The MIC of electric fields was defined as the lowest intensity that inhibits growth by 80% or more compared with control, as determined using the microplate reader.

S. aureus [3] = assay: Checkerboard test of the combined effect of electric fields and chloramphenicol on growth of S. aureus; format: cell-based, Staphylococcus aureus strain SH1000
Description: At the end of treatment, the cultures were stirred several times by up and down pipetting. Four aliquots of 250 μl were dispensed into a 96 MicroWells plate (Nunclon™ Δ, Nunc, Denmark) and the OD was determined spectrophotometrically with a microplate reader (Infinite 200, Tecan, Austria) at 750 nm. The optical densities (ODs) of the blanks, which consisted of uninoculated LB, were subtracted from the ODs of the inoculated plates. The percentage of growth for each well was calculated by dividing the OD of the wells by that of the control: (OD750mm of treated wells/OD750nm of the control well)×100.
Drug interactions with the electric fields were assessed according to the checkerboard method, with the following modifications: S. aureus inocula were diluted in LB medium containing the antibiotic to final concentration of 0.5 to 1.0×10^5 CFU/ml. The final concentrations of the chloramphenicol ranged from 0.125 to 16 μg/ml. Petri dishes containing the electric fields chamber were filled with 7 ml of the diluted cultures, and placed inside a pre cooled incubator. Fields were applied for 6 hours with the field direction alternating every 300 ms and the field intensities were varied by changing the incubator ambient temperature. Thus, lower ambient temperatures allowed for higher field intensities while maintaining the proper culture temperature of 37° C. Control plates containing the same electric fields chambers were placed in a pre-warmed incubator set at 37° C. At the end of the treatment, the cultures were stirred by pipetting the plate content up and down. Quadruplicates of 250 μl each were transferred to a 96 MicroWells plate (Nunc) and the OD was determined using Tecan microplate reader. Cultures were subjected to serial 10-fold dilution (up to 1/10,000) by adding 20 μl of sample to 180 μl of saline solution (0.85% NaCl), from which 80 μl aliquots were plated on LB agar plates (1.5% agar, 1.0% Bacto tryptone, 1% NaCl, 0.5% Yeast extract). CFU counts were performed after overnight incubation at 37° C.
To evaluate the effect of the combinations, the fractional inhibitory concentration (FIC) was calculated for the electric fields and for each antibiotic. The following formulas were used to calculate the FIC index: FIC of electric fields=MIC of electric fields in combination/MIC of electric fields alone, FIC of drug B=MIC of drug B in combination/MIC of drug B alone, and FIC index=FIC of electric fields+FIC of drug B. Synergy was defined as an FIC index of ≦0.5. Indifference was defined as an FIC index of >0.5 but of ≦4. Antagonism was defined as an FIC index of >4.

For CC(C)(O/N=C(\C(=O)N[C@@H]1C(=O)N2C(C(=O)[O-])=C(C[n+]3ccccc3)CS[C@H]12)c1csc(N)n1)C(=O)O [ceftazidime, Ceftazidime], the “reduction in the lung CFU content compared to the antibiotic-only treated control” value ([1]; 48 h combined treatment of electric fields and ceftazidime) was 1.5 log, the “Log CFU (T48) ± STDEV, number of bacteria in the lungs of infected mice” value (from here on “Log CFU (T48) ± STDEV, number”) ([1]; ceftazidime 5 mg/kg i.p. twice daily + electric fields, 48 h) was 5.0 ± 1.7 Log CFU and the “Log CFU (T48) ± STDEV, number” value ([1]; ceftazidime 5 mg/kg i.p. twice daily + sham heat, 48 h) was 6.0 ± 2.3 Log CFU. For the same compound, the “Log CFU (T48) ± STDEV, number” value ([1]; ceftazidime 5 mg/kg i.p. twice daily alone (control of the with-ceftazidime groups), 48 h) was 6.5 ± 2.5 Log CFU, the “growth reduction compared to the non treated lungs” value ([1]; ceftazidime 10 mg/kg BW/day alone) was roughly 2 logs and the “log CFU/lung (T48/T0) (±STDEV), P. aeruginosa growth in mice lungs” value ([1]; ceftazidime + electric fields, 48 h) was 0.4 log CFU/lung and 0.4 ± 1.7 log CFU/lung. The “Average lungs weight, weight in mg (±STDEV)” value (from here on “Average lungs weight, weight”) ([1]; ceftazidime + electric fields) was 244 ± 31 mg, the “log CFU/lung (T48/T0) (±STDEV), P. aeruginosa growth in mice lungs” value ([1]; ceftazidime + sham heat, 48 h) was 1.3 ± 2.2 log CFU/lung and the “Average lungs weight, weight” value ([1]; ceftazidime + sham heat) was 275 ± 60 mg. For the same compound, the “log CFU/lung (T48/T0) (±STDEV), P. aeruginosa growth in mice lungs” value ([1]; ceftazidime alone (control), 10 mg/kg BW/day, 48 h, 10 mg/kg/day) was 1.9 log CFU/lung and 1.9 ± 2.5 log CFU/lung, the “Average lungs weight, weight” value ([1]; ceftazidime alone (control)) was 310 ± 77 mg and the “lung CFU count reduction compared to the control” value ([1]; combined treatment of sham heat and ceftazidime, 48 h) was “did not result in a significant count reduction”.
O=C(N[C@H](CO)[C@H](O)c1ccc([N+](=O)[O-])cc1)C(Cl)Cl [chloramphenicol, Chloramphenicol] was tested, and the MIC (S. aureus [2]) was 4 µg/mL, the “combined effect of electric fields and chloramphenicol” value (S. aureus [3]; S. aureus, 10 MHz fields, 6 hours) was “additive effect” and the “growth of S. aureus relative to control” value (S. aureus [3]; chloramphenicol 0.25 μg/ml, 0 V/cm, 6 hours) was 66%. For the same compound, the “growth of S. aureus relative to control” value (S. aureus [3]; chloramphenicol 0.25 μg/ml, 0.5-2.0 V/cm 10 MHz fields, 6 hours) was 39%, the “growth of S. aureus relative to control” value (S. aureus [3]; chloramphenicol 0.25 μg/ml, 2.0-2.5 V/cm 10 MHz fields, 6 hours) was 51% and the “growth of S. aureus relative to control” value (S. aureus [3]; chloramphenicol 0.25 μg/ml, 3.5-4.5 V/cm 10 MHz fields, 6 hours) was 13%. For the same compound, the “growth of S. aureus relative to control” value (S. aureus [3]; chloramphenicol 0.5 μg/ml, 0 V/cm, 6 hours) was 45%, the “growth of S. aureus relative to control” value (S. aureus [3]; chloramphenicol 0.5 μg/ml, 0.5-2.0 V/cm 10 MHz fields, 6 hours) was 16% and the “growth of S. aureus relative to control” value (S. aureus [3]; chloramphenicol 0.5 μg/ml, 2.0-2.5 V/cm 10 MHz fields, 6 hours) was 20%. For the same compound, the “growth of S. aureus relative to control” value (S. aureus [3]; chloramphenicol 0.5 μg/ml, 3.5-4.5 V/cm 10 MHz fields, 6 hours) was 21%, the “growth of S. aureus relative to control” value (S. aureus [3]; chloramphenicol 1 μg/ml, 0 V/cm, 6 hours) was 30% and the “growth of S. aureus relative to control” value (S. aureus [3]; chloramphenicol 1 μg/ml, 0.5-2.0 V/cm 10 MHz fields, 6 hours) was 26%. For the same compound, the “growth of S. aureus relative to control” value (S. aureus [3]; chloramphenicol 1 μg/ml, 2.0-2.5 V/cm 10 MHz fields, 6 hours) was 6%, the “growth of S. aureus relative to control” value (S. aureus [3]; chloramphenicol 1 μg/ml, 3.5-4.5 V/cm 10 MHz fields, 6 hours) was 2% and the “growth of S. aureus relative to control” value (S. aureus [3]; chloramphenicol 4 μg/ml, 0 V/cm, 6 hours) was 7%. The “growth of S. aureus relative to control” value (S. aureus [3]; chloramphenicol 4 μg/ml, 0.5-2.0 V/cm 10 MHz fields, 6 hours) was 13%, the “growth of S. aureus relative to control” value (S. aureus [3]; chloramphenicol 4 μg/ml, 2.0-2.5 V/cm 10 MHz fields, 6 hours) was 2% and the “growth of S. aureus relative to control” value (S. aureus [3]; chloramphenicol 4 μg/ml, 3.5-4.5 V/cm 10 MHz fields, 6 hours) was 0%. For the same compound, the FIC index (S. aureus [3]; electric fields + chloramphenicol, based on OD measurements) was 0.625 and the “concentration sufficient to produce complete inhibition of the growth of S. aureus in combination with electric fields” value (S. aureus [3]; in the presence of 4 V/cm 10 MHz electric fields applied for 6 hours, field direction alternating every 300 ms) was 1 µg/mL.
